On the set-up of data set [1]: method as in PMID 25922266. Conditions: rat plasma; cited from earlier work.
In data set [2] the test system is epimastigote forms of T. cruzi. More on the design: method as in doi:10.1007/s00044-008-9161-9. The following applies: read-out: IC50 growth of epimastigote forms; cited from earlier work.
The test system of data set [3] is epimastigote forms of T. cruzi, Y strain. The experiment in a line: Trypanocidal activity on epimastigote forms (growth inhibition, Neubauer chamber count). In kind it is cell-based, Trypanosoma cruzi. Conditions: for IC50: Trypanosoma cruzi; for Selectivity Index (SI) Epimastigote: ratio CC50 (LLC-MK2) / IC50 epimastigote. The protocol:
(§1) Initially, the prepared esters were submitted to in vitro tests using the microdilution technique in 96-well plates to evaluate the trypanocidal activity against the epimastigote evolutionary form at different concentrations (200–3.12 μg/mL). Then, the compounds with the best activity were tested against the trypomastigote form of T. cruzi. In both assays, IC50 values were calculated; a compound is considered to have trypanocidal activity when IC50 <40 μM [21]. The results are expressed in Table 1.
Initially, epimastigotes were cultured and distributed in 96-well plates at a density of 10^6 cells/mL in liver infusion tryptose medium supplemented with 10% fetal bovine serum (FBS) and 1% antibiotic. Then, the cells were treated with piplartine analogues at different concentrations and incubated at 28 °C for 24 h. To quantify the growth inhibition of the parasites, a Neubauer chamber was used, and the IC50 was defined.

The test system of data set [4] is trypomastigote forms of T. cruzi, Y strain. The data set can be described thus: Trypanocidal activity on trypomastigote forms (viability by counting). It is filed as cell-based, Trypanosoma cruzi. Conditions: for IC50: Trypanosoma cruzi, Y strain, 24 h; for Selectivity Index (SI) Trypomastigote: ratio CC50 (LLC-MK2) / IC50 trypomastigote. The protocol:
as §1
Trypomastigote forms were obtained by infecting LLC-MK2 cells with the parasite; in this way, the cells were incubated for 24 h in T-25/75 cm^2 flasks at 37 °C in an atmosphere with 5% CO2 in DMEM medium supplemented with 2% FBS and 1% antibiotic. Subsequently, the trypomastigote forms were distributed in 96-well plates treated with piplartine analogues at different concentrations (200; 100; 50; 25; 12.5; 6.25; 3.12 μg/mL) and incubated at 37 °C for 24 h. The assessment of cell viability was performed by counting, and the IC50 was defined.

Data set [5] in a line: In vitro cytotoxicity, MTT assay. In kind it is cell-based, Rhesus monkey. Conditions: Rhesus monkey, MTT, 24 h, read-out: LLCK-MK2 CC50. The protocol: The compounds were considered selective for the parasite when SI ≥ 10 [21]. The results are expressed in Table 2.
For the cytotoxicity analysis, the (3-[4,5-dimethylthiazol-2-yl]-2,5 diphenyl tetrazolium bromide) (MTT) assay was used, in which the LLC-MK2 cells were cultured in Dulbecco’s Modified Eagle Medium (DMEM), then exposed to the piplartine analogues at different concentrations (25–200 μg/mL) and incubated for 24 h at 37 °C. Then MTT was added, and the cells were incubated for 4 h, after which 10% sodium dodecyl sulfate was added. […] To calculate the relative cell viability, cells treated only with sterile phosphate-buffered saline were used as a negative control. The experiments were conducted in triplicates.
(Tetrazolium dyes change colour on reduction, which living cells bring about.)

Data set [6] concerns amastigote form of the parasite. More on the design: method as in PMID 25880257. The following applies: cited from earlier work.
Data set [7] has as its system epimastigote form of T. cruzi. Set-up: method as in PMID 31775321. Conditions: cited from earlier work.

Structures are written as SMILES. pIC50: −log10 of the molar value. Values joined by “and” are separate entries in the source; they are usually repeats but may differ in a detail not shown here. Identical values can stand only once. Like-named read-outs stand apart in the source and are kept apart here. Where only a bound is given, the exact number is not on record here.

One may read the pIC50 as the negative decadic logarithm of the IC50, by convention in mol/L. By IC50 is commonly meant the concentration needed to halve the response being measured. High values mean lower potency, low ones higher potency. The CC50 is the concentration that lowers cell viability or growth by half.

Consider `COc1cc(C=CC(=O)O)cc(OC)c1OC` [3,4,5-trimethoxycinnamic acid], for which, in data set [1], the bioavailability result is given as “high bioavailability” and the oral absorption entry is reported as “rapid oral absorption”.
With `O=C(Cn1ccnc1[N+](=O)[O-])NCc1ccccc1` [Benznidazole, reference compound], the pIC50 in data set [2] was 4.37. The IC50 in data set [3] (Y strain, 24 h) is 23 µg/mL and 115 µM; in data set [4], 32.3 µg/mL and 161 µM.
Regarding `COC(=O)/C=C/c1cc(OC)c(OC)c(OC)c1` [Compound 1, (E)-Methyl 3-(3,4,5-trimethoxyphenyl)acrylate], the CC50 at 24 h in data set [5] is 126 µg/mL and 501 µM. For the same molecule, the IC50 in data set [3] (Y strain, 24 h) is 31.5 µg/mL and 125 µM. In data set [3], the “Selectivity Index (SI) Epimastigote” value is 4.01.
With `CCOC(=O)/C=C/c1cc(OC)c(OC)c(OC)c1` [Compound 2], in data set [5], the CC50 at 24 h was > 200 µg/mL and > 751 µM. Also, the IC50 in data set [3] (Y strain, 24 h) is 85.7 µg/mL and 322 µM. Also, the “Selectivity Index (SI) Epimastigote” value in data set [3] is reported as more than 2.3.
Regarding `CCCOC(=O)/C=C/c1cc(OC)c(OC)c(OC)c1` [Compound 3], in data set [5], the CC50 at 24 h was 148 µg/mL and 526 µM. Further, in data set [3] (Y strain, 24 h), the IC50 is 90.1 µg/mL and 321 µM. Also, the “Selectivity Index (SI) Epimastigote” value in data set [3] stood at 1.6.
As for `COc1cc(/C=C/C(=O)OC(C)C)cc(OC)c1OC` [Compound 4], the CC50 at 24 h in data set [5] is > 200 µg/mL and > 714 µM. Besides, the IC50 in data set [3] (Y strain, 24 h) is 74.5 µg/mL and 266 µM. For the same molecule, the “Selectivity Index (SI) Epimastigote” value in data set [3] is more than 2.7.
With `CCCCCOC(=O)/C=C/c1cc(OC)c(OC)c(OC)c1` [Compound 5], the CC50 at 24 h in data set [5] is > 200 µg/mL and > 649 µM. In addition, the IC50 in data set [3] (Y strain, 24 h) is 20.2 µg/mL and 65.5 µM. Also, the “Selectivity Index (SI) Epimastigote” value in data set [3] is given as more than 9.9.
Take `CCCCCCCCCCOC(=O)/C=C/c1cc(OC)c(OC)c(OC)c1` [Compound 6]: the CC50 at 24 h in data set [5] was > 200 µg/mL and > 528 µM. The “trypanocidal activity against epimastigote form (in words)” value in data set [3] (Y strain) is listed as “suppressed the trypanocidal activity”. The “Epimastigote IC50” value in data set [3] (Y strain, 24 h) was “n*”.
Turning to `COc1ccc(COC(=O)/C=C/c2cc(OC)c(OC)c(OC)c2)cc1` [Compound 7], in data set [5] (LLC-MK2 renal epithelial cells), the CC50 at 24 h is 196 µg/mL and 547 µM. The IC50 in data set [3] (Y strain, 24 h) was 56.4 µg/mL and 157 µM. Further, in data set [3], the “Selectivity Index (SI) Epimastigote” value is on record as 3.5.
Take `COc1cccc(COC(=O)/C=C/c2cc(OC)c(OC)c(OC)c2)c1` [Compound 8]: in data set [5] (LLC-MK2 renal epithelial cells), the CC50 at 24 h was 100 µg/mL and 280 µM. Further, in data set [3] (Y strain, 24 h), the IC50 was 40.3 µg/mL and 112 µM. In addition, the “Selectivity Index (SI) Epimastigote” value in data set [3] was 2.5. For the same molecule, in data set [4], the IC50 is 64.4 µg/mL and 180 µM; the “Selectivity Index (SI) Trypomastigote” value was 1.6.
Take `COc1cc(/C=C/C(=O)OCc2ccc(C)cc2)cc(OC)c1OC` [Compound 9]: the CC50 at 24 h in data set [5] (LLC-MK2 renal epithelial cells) is 183 µg/mL and 534 µM. Also, the IC50 in data set [3] (Y strain, 24 h) is 61.8 µg/mL and 180 µM. Besides, the “Selectivity Index (SI) Epimastigote” value in data set [3] worked out at 3.0. In data set [4], the IC50 is 39.9 µg/mL and 123 µM; the “Selectivity Index (SI) Trypomastigote” value turned out to be 4.6.
In the case of `COc1cc(/C=C/C(=O)OCc2ccccc2)cc(OC)c1OC` [Compound 10], the CC50 at 24 h in data set [5] (LLC-MK2 renal epithelial cells) is 183 µg/mL and 557 µM. Further, in data set [3] (Y strain, 24 h), the IC50 is 40 µg/mL and 122 µM. For the same molecule, the “Selectivity Index (SI) Epimastigote” value in data set [3] was 4.6. Moreover, in data set [4], the IC50 was 13.4 µg/mL and 40.8 µM; the “Selectivity Index (SI) Trypomastigote” value is on record as 13.7.
On to `C=C(C)[C@@H]1CC=C(COC(=O)/C=C/c2cc(OC)c(OC)c(OC)c2)CC1` [Compound 12], for which the CC50 at 24 h in data set [5] (LLC-MK2 renal epithelial cells) was 106 µg/mL and 284 µM. Besides, the IC50 in data set [3] (Y strain, 24 h) is 70.1 µg/mL and 188 µM. Besides, in data set [3], the “Selectivity Index (SI) Epimastigote” value came out at 1.5. Besides, in data set [4], the IC50 is 38.7 µg/mL and 104 µM; the “Selectivity Index (SI) Trypomastigote” value turned out to be 2.7.
Consider `COc1cc(C=CC(=O)OC2CC3CCC2(C)C3(C)C)cc(OC)c1OC` (stereo not shown) [Compound 13], for which the CC50 at 24 h in data set [5] (LLC-MK2 renal epithelial cells) is 71.2 µg/mL and 190 µM. Moreover, the IC50 in data set [3] (Y strain, 24 h) is 155 µg/mL and 414 µM. Also, the “Selectivity Index (SI) Epimastigote” value in data set [3] is recorded as 0.5.
As to `CCOC(=O)/C=C/c1ccc(O)c(O)c1` [ethyl caffeate], in data set [6], the pIC50 is 4.74.
As to `COC(=O)/C=C/c1ccc(O)cc1` [methyl p-coumarate], the pIC50 in data set [7] was 3.22.
`COc1cc(/C=C/C(=O)N2CCC=CC2=O)cc(OC)c1OC` [piplartine]: the pIC50 in data set [2] was 4.68.

The record behind these values is PMC10254306, “Piplartine-Inspired 3,4,5-Trimethoxycinnamates: Trypanocidal, Mechanism of Action, and In Silico Evaluation” (Molecules, 2023).
